Source: patent US7579353B2, “Pyridinone derivatives against malaria” (Glaxo Group Limited, priority 2005, dated 2009)
≈ marks a conversion by molar mass, not a printed value. Like-named read-outs stand apart in the source and are kept apart here.

How the values were obtained:
Plasmodium falciparum = test: In vitro anti-malarial activity against Plasmodium falciparum, IC50 assay / [3H]-hypoxanthine incorporation assay; assay type: cell-based; conditions: Erythrocyte, parasitized red blood cells, 48 hours
Protocol: In Vitro Anti-malarial Activity Against Plasmodium falciparum
IC50 Assay/[^3H]-Hypoxanthine Assay
Plasmodium falciparum strains.
The culture medium comprised RPMI 1640 with 25 mM HEPES, sodium bicarbonate and glutamine (GIBCO™ cat. ref.: 52400), supplemented with 10% of pooled human sera AB (Irvine Scientific, cat. ref.: 5009) and HT supplement (0.15 mM hypoxanthine and 24 μM thymidine), (GIBCO™ cat. ref.: 41065). Human sera were decomplemented 30 min. at 56° C., aliquoted and stored frozen at −20° C. until use in this culture medium.
Red blood cells O+ stock suspensions were prepared from whole blood bags coming from incomplete blood donation, provided by the Spanish Red Cross (<25 days after sampling). This “whole blood” was aliquoted and stored at 4° C.
To prepare red blood cells for the assay, the whole blood was centrifuged and washed 3 times with RPMI without serum. The upper phase, containing white blood cells was removed. The washed red blood cells were kept as a 50% suspension in complete medium. The prepared cells were stored at 4° C. and were employed in the assay at any time up to 4 days after preparation.
Test compounds were dissolved at 2 mg/ml in 100% DMSO on the day of the assay. If necessary, complete dissolution was achieved by gentle heating (the mixture was heated at a temperature <37° C.) and sonication (sonication bath).
For IC50 determinations, 10 serial 2-fold dilutions were prepared in complete medium in the presence of a constant amount of DMSO.
Plasmodium falciparum strains were maintained in complete medium at an hematocrit of 5% in continuous culture using a method adapted from Trager and Jensen (1, 2).
The parasitemia was calculated by counting the percentage of parasitized erythrocytes by optical microscopy. Thin films of blood were made every day from each culture flask, fixed with methanol and stained for 10 min. in Giemsa (Merck, cat ref.: 1.09204) at 10% in buffered water pH 7.2. The glass slides were observed and counted with an optical microscope (Nikon, Eclipse E200) equipped with a 100× immersion oil objective.
The culture was maintained at an hematocrit of 5%, with a daily change of medium and was diluted when parasitemia had reached about 5%.
[^3H] Hypoxanthine incorporation assay was conducted using a method adapted from Desjardins et al. (3). The assays were performed in 96 wells flat bottom microplates.
1. Serial dilutions of the test compounds (50 μl of a 5× solution/well) were deposited in duplicate. Compounds of the invention were tested in this assay. Chloroquine and Atovaquone were used as control compounds for each assay.
3. [^3H]-Hypoxanthine (Amersham Biosciences, cat. ref.: TRK74) was added extemporaneously to the inoculum suspension at a concentration of 1 μCi/ml (equating to […]). 200 μl of the resulting suspension was distributed into each well (other than the control well H12 described below) leading to a final volume of 250 μl per well, at 2% of hematocrit and 0.5% of parasitemia/well.
4. In each plate, 2 columns were reserved for control wells: • Column 11: Positive control wells: PRBCs with 0.2% DMSO—(i) to determine DMSO solvent effect on parasite growth (at a final concentration of 0.2%) and (ii) to compare with cultures treated with test compounds. • Column 12 (comprising wells A12-H12): • A12-D12—Background value wells: Uninfected RBCs—blank control to obtain the background reading from RBCs without parasites. • E12-G12—Solvent effect wells: PRBCs without DMSO—to determine DMSO solvent effect on PRBCs by comparing these wells with column 11 wells. • H12-Non-radioactive well: PRBCs with cold hypoxanthine—(i) to carry out a thin blood film to determine parasitemia value after incubation by microscopy and (ii) to ensure that the parasites have grown properly during the assay. (200 μl of inoculum suspension was prepared as described above (Items 2 and 3) but with non-tritiated hypoxanthine instead of [3H]-hypoxanthine, then added to this well to a final volume of 250 μl). […]

[1] = Compound solubility determination (gross and equilibrium solubility; FaSSIF, FeSSIF, pH 7.4 PBS, pH 1.0 0.1N HCl, pH 4.5 sodium citrate); assay type: physicochemical; conditions: thermodynamic from solid
Protocol: Compound Solubility Determination
An amount of 3 mg solid compound with LC-MS purity ≧95% was required. This amount was split between 3 different glass vials (1.8 ml volume each), placing 1 mg compound into each one.
Organic solvents of HPLC grade were used. Ultra pure water (Milli-Q grade) was used. Buffers were prepared with ultra pure water and filtered using 0.45μ cameo filters. The compositions of each solvent employed in this assay are described below (part III).
2. Determination of Equilibrium Solubility (Assuming Chemical Stability in the Desired Solvent is not a Problem).
For each of the three vial samples prepared as described above, in which the amount of compound was totally dissolved, the following procedure was subsequently carried out: • a) A small amount (approx. 0.1 mg) of additional solid compound was added to the vial to maintain an excess of the compound in the mixture in the form of undissolved solid. • b) The samples were magnetically stirred for 24 hr. If required, additional solid compound (0.1 mg) was added to maintain excess of it and then the samples were stirred again. • c) Then the samples were filtered (Millipore Milex filters nylon 0.2 um) and three aliquots were taken (one from each of the three vials) and analysed by LC-MS. • d) The pH of the final solution in each sample was measured with a pH-meter (WTW pH330i and a pH-electrode Sentix 41).
3. LC-MS Assay for Analytical Quantification
All filtered aliquots were analysed by LC-MS. The analysis was carried out with a Luna 5 μC18 (2) column 4.6×150 mm, using a HP1100 HPLC instrument interfaced with a Waters ZMD-2000 MS spectrometer. The concentration of the final sample as prepared above was calculated from that of a reference calibration curve obtained from serial dilutions of a 2 mM solution of the compound under investigation in DMSO (Aldrich cat. ref.: 27685-5) stock solution.
The analysis of all LC-MS data was performed with MassLynx 3.4 software. Statistical and graphic analysis of data was performed using Microsoft Excel. The concentration (uM) and solubility (ug/ml) for each compound was calculated using the peak areas from the sample and those from the calibration curve.
A) FaSSIF is a solvent which simulates the Fasted State of the Intestinal Fluid. (FaSSIF: Fasted State Simulated Intestinal Fluid).
B) FeSSIF is a solvent which simulates the Fed State of the Intestinal Fluid. (FeSSIF: Fed State Simulated Intestinal Fluid).
C) Solubility at pH 7.4 was determined in phosphate buffered saline (PBS) (Fluka cat. ref: 79383)
D) Solubility at pH 1.0 was determined in 0.1N HCl solution (Scharlau AL0744010C)
E) Solubility at pH 4.5 was determined in sodium citrate 0.5M solution. (Aldrich 25, 127-5)

[2] = 0.1N HCl solution, simulated gastric fluid, pH 1 (HCl), read-out: Solubility at pH 1 (HCl)
[3] = FaSSIF (fasted state simulated intestinal fluid), fassif, read-out: Solubility in FaSSIF
[4] = FeSSIF (fed state simulated intestinal fluid), fessif, read-out: Solubility in FeSSIF
[5] = phosphate buffered saline (PBS), aqueous buffer, pH 7.4 (PBS), read-out: Solubility at pH 7.4 (PBS)
[6] = sodium citrate 0.5M solution, aqueous buffer, pH 4.5 (Na citrate), read-out: Solubility at pH 4.5 (Na citrate)

Compound | IC50 (Plasmodium falciparum) [µg/mL] | further results
Cc1[nH]c(C)c(-c2ccc(OCc3ccc(F)cc3)nc2)c(=O)c1Cl [Example 13, 5-Chloro-6′-{[4-fluorobenzyl]oxy}-2,6-dimethyl-3,3′-bipyridin-4(1H)-one] | < 0.125 | –
Cc1[nH]c(C)c(-c2ccc(-c3ccc(C(F)(F)F)cc3Cl)nc2)c(=O)c1Cl [Example 55, 5-chloro-6′-[2-chloro-4-(trifluoromethyl)phenyl]-2,6-dimethyl-3,3′-bipyridin-4(1H)-one] | < 0.125 | –
Cc1[nH]c(C)c(-c2cnc(-c3ccc(C(F)(F)F)cc3)nc2)c(=O)c1Cl [Example 64, 3-Chloro-2,6-dimethyl-5-(5-(2-(4-trifluoromethylphenyl))pyrimidinyl)pyridin-4(1H)-one] | < 0.125 | –
Cc1[nH]c(C)c(-c2ccc(OCc3ccccc3C(F)(F)F)nc2)c(=O)c1Cl [Example 11, 5-Chloro-2,6-dimethyl-6′-{[2-(trifluoromethyl)benzyl]oxy}-3,3′-bipyridin-4(1H)-one] | < 0.125 | –
Cc1[nH]c(C)c(-c2ccc(Oc3ccc(OC(F)(F)F)cc3)cc2)c(=O)c1Cl [comparator Y] | – | solubility at 24 h [1, 2]: < 1 µg/mL; solubility at 24 h [1, 3]: < 1 µg/mL; solubility at 24 h [1, 4]: 1 to 5 µg/mL (≈ 2.44 to 12.2 µM); solubility at 24 h [1, 5]: < 1 µg/mL; solubility at 24 h [1, 6]: < 1 µg/mL
Cc1[nH]c(C)c(-c2ccc(OCc3ccccc3C(F)(F)F)nc2)c(=O)c1Br [Example 4, 5-Bromo-2,6-dimethyl-6′-{[2-(trifluoromethyl)benzyl]oxy}-3,3′-bipyridin-4(1H)-one] | < 0.125 | –
Cc1[nH]c(C)c(-c2ccc(-c3cccc(Cl)c3)nc2)c(=O)c1Cl [Example 34, 5-Chloro-6′-(3-chlorophenyl)-2,6-dimethyl-3,3′-bipyridin-4(1H)-one] | < 0.125 | –
Cc1[nH]c(C)c(-c2ccc(CCc3ccc(C(F)(F)F)cc3)cn2)c(=O)c1Cl [Example 52, 5′-Chloro-2′,6′-dimethyl-5-{2-[4-(trifluoromethyl)phenyl]ethyl}-2,3′-bipyridin-4′(1′H)-one] | < 0.125 | –
Cc1[nH]c(C)c(-c2ccc(OCc3cc(F)cc(F)c3)nc2)c(=O)c1Br [Example 7, 5-Bromo-6′-{[3,5-difluorobenzyl]oxy}-2,6-dimethyl-3,3′-bipyridin-4(1H)-one] | < 0.125 | –
Cc1[nH]c(C)c(-c2ccccn2)c(=O)c1Br [Compound W, 5′-Bromo-2′,6′-dimethyl-2,3′-bipyridin-4′-(1′H)-one, reference compound] | 0.5 (≈ 1.79 µM) | –
Cc1nc(C)c(-c2ccc(-c3ccc(Cl)cc3)cc2)c(O)c1Br [comparator X] | – | solubility at 24 h [1, 2]: < 1 µg/mL; solubility at 24 h [1, 3]: 5 to 10 µg/mL (≈ 12.9 to 25.7 µM); solubility at 24 h [1, 4]: 5 to 10 µg/mL (≈ 12.9 to 25.7 µM); solubility at 24 h [1, 5]: < 1 µg/mL; solubility at 24 h [1, 6]: < 1 µg/mL
Cc1[nH]c(C)c(-c2ccc(-c3ccc(N(C)C)c(Br)c3)nc2)c(=O)c1Br [Example 71, 5-Bromo-6′-[3-bromo-4-(dimethylamino)phenyl]-2,6-dimethyl-3,3′-bipyridin-4(1H)one] | < 0.125 | –
Cc1[nH]c(C)c(-c2ccc(Oc3cccc(C(F)(F)F)c3)cc2)c(=O)c1Cl [comparator Z] | – | solubility at 24 h ([1]; aqueous buffer, pH 4.5 (Na citrate), read-out: Solubility at pH 4.5 (Na citrate)): < 1 µg/mL; solubility at 24 h ([1]; aqueous buffer, pH 7.4 (PBS), read-out: Solubility at pH 7.4 (PBS)): < 1 µg/mL; solubility at 24 h ([1]; fassif, read-out: Solubility in FaSSIF): < 1 µg/mL; solubility at 24 h ([1]; fessif, read-out: Solubility in FeSSIF): 1 to 5 µg/mL (≈ 2.54 to 12.7 µM); solubility at 24 h ([1]; simulated gastric fluid, pH 1 (HCl), read-out: Solubility at pH 1 (HCl)): < 1 µg/mL

More lines, main results first:

IC50 (Plasmodium falciparum) [µg/mL] | Compound | further results
< 0.125 | Cc1[nH]c(C)c(-c2ccc(OCc3ccc(C(F)(F)F)cc3)nc2)c(=O)c1Br [Example 3, 5-Bromo-2,6-dimethyl-6′-{[4-(trifluoromethyl)benzyl]oxy}-3,3′-bipyridin-4(1H)-one] | –
< 0.125 | Cc1[nH]c(C)c(-c2ccc(-c3ccc(OC(F)(F)F)cc3)nc2)c(=O)c1Br [Example 15, 5-Bromo-2,6-dimethyl-6′-{4-[(trifluoromethyl)oxy]phenyl}-3,3′-bipyridin-4(1H)-one] | –
< 0.125 | Cc1[nH]c(C)c(-c2ccc(OCc3ccc(OC(F)(F)F)cc3)nc2)c(=O)c1Cl [Example 8, 5-Chloro-2,6-dimethyl-6′-{[4-(trifluoromethoxy)benzyl]oxy}-3,3′-bipyridin-4(1H)-one] | –
< 0.125 | Cc1[nH]c(C)c(-c2ccc(-c3ccc(Cl)cc3)nc2)c(=O)c1Cl [Example 33, 5-Chloro-6′-(4-chlorophenyl)-2,6-dimethyl-3,3′-bipyridin-4(1H)-one] | –
< 0.125 | Cc1[nH]c(C)c(-c2ccc(-c3ccc(C(F)(F)F)cc3)nc2)c(=O)c1Cl [Example 30, 5-Chloro-2,6-dimethyl-6′-{4-[trifluoromethyl]phenyl}-3,3′-bipyridin-4(1H)-one] | –
< 0.125 | CCCCc1ccc(-c2ccc(-c3c(C)[nH]c(C)c(Br)c3=O)cn2)cc1.Cl [Example 39, 5-Bromo-6′-(4-n-butylphenyl)-2,6-dimethyl-3,3′-bipyridin-4(1H)-one] | –
< 0.125 | Cc1[nH]c(C)c(-c2ccc(-c3ccc(OC(F)(F)F)cc3)nc2)c(=O)c1Cl [Example 27, 5-Chloro-2,6-dimethyl-6′-{4-[(trifluoromethyl)oxy]phenyl}-3,3′-bipyridin-4(1H)-one] | –
< 0.125 | Cc1[nH]c(C)c(-c2ccc(OCc3ccc(OC(F)(F)F)cc3)nc2)c(=O)c1Br [Example 1, 5-Bromo-2,6-dimethyl-6′-{[4-(trifluoromethoxy)benzyl]oxy}-3,3′-bipyridin-4(1H)-one] | –
